Test system: adult cat fleas
Test: Residual flea efficacy trials on infested cats (Studies A-D)
Type: in vivo
Settings: cleansing system 40 mg/kg vs topical at average 225 mg/kg
Protocol: The efficacy trials were performed using protocols that required the experimental group of infested cats to be compared with an untreated group of similarly infested animals.
The cleansing emulsion system formulation, containing 0.5% etofenprox was applied to the wet animals at the rate of 8 grams of cleansing system per kg of animal body weight. The 40% etofenprox topical was applied at the rate of 1 ml per cat for weights up to 5 lbs. (2.2 kg) and 2 ml per cat for those weighing greater than 5 lbs. (2.2 kg). The average rate of etofenprox applied to the cleansing system treated cats was 40 mg etofenprox per kg of body weight. The average rate of etofenprox applied to the topical treated cats was 225 mg per kg of body weight.
All test animals were infested with 100 unfed adult cat fleas prior to treatment. The cats were examined for the presence of live fleas at 24 to 48 hours after treatment. Residual data points were accomplished by infesting the treated animals at 14, 21 and 28 days after treatment. The animals were then examined for the presence of live fleas 48 hours after each infestation.

Q: CCOc1ccc(C(C)(C)COCc2cccc(Oc3ccccc3)c2)cc1 [Etofenprox] was tested. Which “residual adult flea kill / residual efficacy compared with topical” value did it give?
A: residual efficacy results similar to 225 mg/kg BW rates required for topical formulations

From patent US9149416B1, “High deposition cleansing system” (WELLMARK INTERNATIONAL, priority 2008, dated 2015)
